The source of these data is patent US20240043404A1 (AbbVie Inc., priority 2009, published 2024).

Structures are written as SMILES.

The subject of the test is RS4;11 cells. Kind of test: RS4;11 cell viability assay (CellTiter Glo).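 Note: acute lymphoblastic leukemia line RS4,11, EC50 derived from percentage of viable cells after treatment relative to untreated controls, cell killing taken as a measure of Bcl-2 inhibition.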 In kind it is cell-based, human. The settings on record: Homo sapiens, RS4-11, 48 h, 50,000 cells per well, 10% human serum, 48 hours; read-out: RS4; 11 EC50 Values.
Protocol: The acute lymphoblastic leukemia (ALL) cell line RS4;11 was used as the primary human cell line to assess the cellular activity of Bcl-2 selective agents in vitro and their efficacy in vivo.
Cell cytotoxicity EC50 values were assessed using CellTiter Glo (Promega) according to the manufacturer's recommendations. The EC50 values were determined as a percentage of viable cells following treatment compared to the untreated control cells.
Regarding `CC1(C)CCC(CN2CCN(c3ccc(C(=O)NS(=O)(=O)c4cnc(OCC5CCOCC5)c(Cl)c4)c(Oc4cnc5[nH]ccc5c4)c3)CC2)=C(c2ccc(Cl)cc2)C1` [Example 40, 4-(4-{[2-(4-chlorophenyl)-4,4-dimethylcyclohex-1-en-1-yl]methyl}piperazin-1-yl)-N-{[5-chloro-6-(tetrahydro-2H-pyran-4-ylmethoxy)pyridin-3-yl]sulfonyl}-2-(1H-pyrrolo[2,3-b]pyridin-5-yloxy)benzamide], the EC50 is 99.7 nM. Regarding `CC1(C)CC(c2ccc(Cl)cc2)=C(CN2CCN(c3ccc(C(=O)NS(=O)(=O)c4cnc(OCC5CCOCC5)c(Cl)c4)c(Oc4cnc5[nH]ccc5c4)c3)CC2)CO1` [Example 41, 4-(4-{[4-(4-chlorophenyl)-6,6-dimethyl-5,6-dihydro-2H-pyran-3-yl]methyl}piperazin-1-yl)-N-{[5-chloro-6-(tetrahydro-2H-pyran-4-ylmethoxy)pyridin-3-yl]sulfonyl}-2-(1H-pyrrolo[2,3-b]pyridin-5-yloxy)benzamide], the EC50 stood at 58 nM. Consider `CC1(C)CC(c2ccc(Cl)cc2)=C(CN2CCN(c3ccc(C(=O)NS(=O)(=O)c4ccc(NCC5CCOCC5)c(C(F)(F)F)c4)c(Oc4cnc5[nH]ccc5c4)c3)CC2)CO1` [Example 42, 4-(4-{[4-(4-chlorophenyl)-6,6-dimethyl-5,6-dihydro-2H-pyran-3-yl]methyl}piperazin-1-yl)-2-(1H-pyrrolo[2,3-b]pyridin-5-yloxy)-N-{[4-[(tetrahydro-2H-pyran-4-ylmethyl)amino]-3-(trifluoromethyl)phenyl]sulfonyl}benzamide], for which the EC50 amounted to 534 nM. For the compound `CC1(C)CC(c2ccc(Cl)cc2)=C(CN2CCN(c3ccc(C(=O)NS(=O)(=O)c4ccc(NCC5CCOCC5)c(S(=O)(=O)C(F)(F)F)c4)c(Oc4cnc5[nH]ccc5c4)c3)CC2)CO1` [Example 43, 4-(4-{[4-(4-chlorophenyl)-6,6-dimethyl-5,6-dihydro-2H-pyran-3-yl]methyl}piperazin-1-yl)-2-(1H-pyrrolo[2,3-b]pyridin-5-yloxy)-N-({4-[(tetrahydro-2H-pyran-4-ylmethyl)amino]-3-[(trifluoromethyl)sulfonyl]phenyl}sulfonyl)benzamide], the EC50 worked out at 272 nM.

`CC1(C)CC(c2ccc(Cl)cc2)=C(CN2CCN(c3ccc(C(=O)NS(=O)(=O)c4ccc(N[C@H]5CC[C@H](N6CCOCC6)CC5)c(S(=O)(=O)C(F)(F)F)c4)c(Oc4cnc5[nH]ccc5c4)c3)CC2)CO1` [Example 44, Trans-4-(4-{[4-(4-chlorophenyl)-6,6-dimethyl-5,6-dihydro-2H-pyran-3-yl]methyl}piperazin-1-yl)-N-({4-[(4-morpholin-4-ylcyclohexyl)amino]-3-[(trifluoromethyl)sulfonyl]phenyl}sulfonyl)-2-(1H-pyrrolo[2,3-b]pyridin-5-yloxy)benzamide]: the EC50 worked out at 53.1 nM. On to `CN1CCC(Nc2ccc(S(=O)(=O)NC(=O)c3ccc(N4CCN(CC5=C(c6ccc(Cl)cc6)CC(C)(C)OC5)CC4)cc3Oc3cnc4[nH]ccc4c3)cc2S(=O)(=O)C(F)(F)F)CC1` [Example 45, 4-(4-{[4-(4-chlorophenyl)-6,6-dimethyl-5,6-dihydro-2H-pyran-3-yl]methyl}piperazin-1-yl)-N-({4-[(1-methylpiperidin-4-yl)amino]-3-[(trifluoromethyl)sulfonyl]phenyl}sulfonyl)-2-(1H-pyrrolo[2,3-b]pyridin-5-yloxy)benzamide], for which the EC50 stood at 9.92 nM. Take `CC1(C)CCC(CN2CCN(c3ccc(C(=O)NS(=O)(=O)c4cnc(OCC5CCOCC5)c(C(N)=O)c4)c(Oc4cnc5[nH]ccc5c4)c3)CC2)=C(c2ccc(Cl)cc2)C1` [Example 46, 5-({[4-(4-{[2-(4-chlorophenyl)-4,4-dimethylcyclohex-1-en-1-yl]methyl}piperazin-1-yl)-2-(1H-pyrrolo[2,3-b]pyridin-5-yloxy)benzoyl]amino}sulfonyl)-2-(tetrahydro-2H-pyran-4-ylmethoxy)nicotinamide]: the EC50 was over 5000 nM. Regarding `CN1CCC(COc2ncc(S(=O)(=O)NC(=O)c3ccc(N4CCN(CC5=C(c6ccc(Cl)cc6)CC(C)(C)CC5)CC4)cc3Oc3cnc4[nH]ccc4c3)cc2Br)CC1` [Example 47, N-({5-bromo-6-[(1-methylpiperidin-4-yl)methoxy]pyridin-3-yl}sulfonyl)-4-(4-{[2-(4-chlorophenyl)-4,4-dimethylcyclohex-1-en-1-yl]methyl}piperazin-1-yl)-2-(1H-pyrrolo[2,3-b]pyridin-5-yloxy)benzamide], the EC50 stood at 32.6 nM.

As for `CN1CCC(COc2ccc(S(=O)(=O)NC(=O)c3ccc(N4CCN(CC5=C(c6ccc(Cl)cc6)CC(C)(C)CC5)CC4)cc3Oc3cnc4[nH]ccc4c3)cc2[N+](=O)[O-])CC1` [Example 48, 4-(4-{[2-(4-chlorophenyl)-4,4-dimethylcyclohex-1-en-1-yl]methyl}piperazin-1-yl)-N-({4-[(1-methylpiperidin-4-yl)methoxy]-3-nitrophenyl}sulfonyl)-2-(1H-pyrrolo[2,3-b]pyridin-5-yloxy)benzamide], the EC50 came to 3.33 nM. Take `CC1(C)CCC(CN2CCN(c3ccc(C(=O)NS(=O)(=O)c4cnc(OCC5COCCO5)c(C#N)c4)c(Oc4cnc5[nH]ccc5c4)c3)CC2)=C(c2ccc(Cl)cc2)C1` (stereo not shown) [Example 49, 4-(4-{[2-(4-chlorophenyl)-4,4-dimethylcyclohex-1-en-1-yl]methyl}piperazin-1-yl)-N-{[5-cyano-6-(1,4-dioxan-2-ylmethoxy)pyridin-3-yl]sulfonyl}-2-(1H-pyrrolo[2,3-b]pyridin-5-yloxy)benzamide]: the EC50 was determined as 352 nM. Consider `CC1(C)CCC(CN2CCN(c3ccc(C(=O)NS(=O)(=O)c4cnc(OCC5COCCO5)c(Br)c4)c(Oc4cnc5[nH]ccc5c4)c3)CC2)=C(c2ccc(Cl)cc2)C1` (stereo not shown) [Example 50, N-{[5-bromo-6-(1,4-dioxan-2-ylmethoxy)pyridin-3-yl]sulfonyl}-4-(4-{[2-(4-chlorophenyl)-4,4-dimethylcyclohex-1-en-1-yl]methyl}piperazin-1-yl)-2-(1H-pyrrolo[2,3-b]pyridin-5-yloxy)benzamide], for which the EC50 came out at 313 nM. Regarding `CC1(C)CCC(CN2CCN(c3ccc(C(=O)NS(=O)(=O)c4ccc(OCC5CCOC(C)(C)C5)c([N+](=O)[O-])c4)c(Oc4cnc5[nH]ccc5c4)c3)CC2)=C(c2ccc(Cl)cc2)C1` (stereo not shown) [Example 51, 4-(4-{[2-(4-chlorophenyl)-4,4-dimethylcyclohex-1-en-1-yl]methyl}piperazin-1-yl)-N-({4-[(2,2-dimethyltetrahydro-2H-pyran-4-yl)methoxy]-3-nitrophenyl}sulfonyl)-2-(1H-pyrrolo[2,3-b]pyridin-5-yloxy)benzamide], the EC50 came to 23.1 nM. Turning to `CC1(C)CCC(CN2CCN(c3ccc(C(=O)NS(=O)(=O)c4cc(Cl)c(NCC5CCOCC5)c(C#N)c4)c(Oc4cnc5[nH]ccc5c4)c3)CC2)=C(c2ccc(Cl)cc2)C1` [Example 52, N-({3-chloro-5-cyano-4-[(tetrahydro-2H-pyran-4-ylmethyl)amino]phenyl}sulfonyl)-4-(4-{[2-(4-chlorophenyl)-4,4-dimethylcyclohex-1-en-1-yl]methyl}piperazin-1-yl)-2-(1H-pyrrolo[2,3-b]pyridin-5-yloxy)benzamide], the EC50 is 200 nM. Regarding `CC(=O)N1CCC(Nc2ccc(S(=O)(=O)NC(=O)c3ccc(N4CCN(CC5=C(c6ccc(Cl)cc6)CC(C)(C)CC5)CC4)cc3Oc3cnc4[nH]ccc4c3)cc2[N+](=O)[O-])CC1` [Example 53, N-({4-[(1-acetylpiperidin-4-yl)amino]-3-nitrophenyl}sulfonyl)-4-(4-{[2-(4-chlorophenyl)-4,4-dimethylcyclohex-1-en-1-yl]methyl}piperazin-1-yl)-2-(1H-pyrrolo[2,3-b]pyridin-5-yloxy)benzamide], the EC50 turned out to be 66.7 nM.

For the compound `CC1(C)CCC(CN2CCN(c3ccc(C(=O)NS(=O)(=O)c4cc(F)c(NCC5CCOCC5)cc4Cl)c(Oc4cnc5[nH]ccc5c4)c3)CC2)=C(c2ccc(Cl)cc2)C1` [Example 54, N-({2-chloro-5-fluoro-4-[(tetrahydro-2H-pyran-4-ylmethyl)amino]phenyl}sulfonyl)-4-(4-{[2-(4-chlorophenyl)-4,4-dimethylcyclohex-1-en-1-yl]methyl}piperazin-1-yl)-2-(1H-pyrrolo[2,3-b]pyridin-5-yloxy)benzamide], the EC50 was found to be 1920 nM. In the case of `CC1(C)CCC(CN2CCN(c3ccc(C(=O)NS(=O)(=O)c4ccc(NCCCN5CCOCC5)c([N+](=O)[O-])c4)c(Oc4cnc5[nH]ccc5c4)c3)CC2)=C(c2ccc(Cl)cc2)C1` [Example 55, 4-(4-{[2-(4-chlorophenyl)-4,4-dimethylcyclohex-1-en-1-yl]methyl}piperazin-1-yl)-N-({4-[(3-morpholin-4-ylpropyl)amino]-3-nitrophenyl}sulfonyl)-2-(1H-pyrrolo[2,3-b]pyridin-5-yloxy)benzamide] it was 13.2 nM; in that of `CC1(C)CCC(CN2CCN(c3ccc(C(=O)NS(=O)(=O)c4cnc(OCC5(F)CCOCC5)c(C#N)c4)c(Oc4cnc5[nH]ccc5c4)c3)CC2)=C(c2ccc(Cl)cc2)C1` [Example 56, 4-(4-{[2-(4-chlorophenyl)-4,4-dimethylcyclohex-1-en-1-yl]methyl}piperazin-1-yl)-N-({5-cyano-6-[(4-fluorotetrahydro-2H-pyran-4-yl)methoxy]pyridin-3-yl}sulfonyl)-2-(1H-pyrrolo[2,3-b]pyridin-5-yloxy)benzamide], 86.5 nM; in that of `CC1(C)CCC(CN2CCN(c3ccc(C(=O)NS(=O)(=O)c4cnc(OCCN5CCOCC5)c(C#N)c4)c(Oc4cnc5[nH]ccc5c4)c3)CC2)=C(c2ccc(Cl)cc2)C1` [Example 57, 4-(4-{[2-(4-chlorophenyl)-4,4-dimethylcyclohex-1-en-1-yl]methyl}piperazin-1-yl)-N-{[5-cyano-6-(2-morpholin-4-ylethoxy)pyridin-3-yl]sulfonyl}-2-(1H-pyrrolo[2,3-b]pyridin-5-yloxy)benzamide], 426 nM. In the case of `COCCOCCS(=O)(=O)c1ccc(S(=O)(=O)NC(=O)c2ccc(N3CCN(CC4=C(c5ccc(Cl)cc5)CC(C)(C)CC4)CC3)cc2Oc2cnc3[nH]ccc3c2)cc1Cl` [Example 58, N-[(3-chloro-4-{[2-(2-methoxyethoxy)ethyl]sulfonyl}phenyl)sulfonyl]-4-(4-{[2-(4-chlorophenyl)-4,4-dimethylcyclohex-1-en-1-yl]methyl}piperazin-1-yl)-2-(1H-pyrrolo[2,3-b]pyridin-5-yloxy)benzamide] it was over 5000 nM.
